“And” between values parts separate entries of the source, which are not always exact repeats. Equal entries are not always repeated. Where two headings read alike, the source gives them in different places.
Experiments:
[1] = molecular target: T1, human TRPV3 (Homo sapiens, UniProt Q8NET8); experiment: In vitro Ca2+ flux counter-screen in human TRPV3 overexpressing cells; assay type: cell-based
T1 construct: expressed in transfected cells; host or cells: overexpressing cells
T1 sequence (Q8NET8 1-790): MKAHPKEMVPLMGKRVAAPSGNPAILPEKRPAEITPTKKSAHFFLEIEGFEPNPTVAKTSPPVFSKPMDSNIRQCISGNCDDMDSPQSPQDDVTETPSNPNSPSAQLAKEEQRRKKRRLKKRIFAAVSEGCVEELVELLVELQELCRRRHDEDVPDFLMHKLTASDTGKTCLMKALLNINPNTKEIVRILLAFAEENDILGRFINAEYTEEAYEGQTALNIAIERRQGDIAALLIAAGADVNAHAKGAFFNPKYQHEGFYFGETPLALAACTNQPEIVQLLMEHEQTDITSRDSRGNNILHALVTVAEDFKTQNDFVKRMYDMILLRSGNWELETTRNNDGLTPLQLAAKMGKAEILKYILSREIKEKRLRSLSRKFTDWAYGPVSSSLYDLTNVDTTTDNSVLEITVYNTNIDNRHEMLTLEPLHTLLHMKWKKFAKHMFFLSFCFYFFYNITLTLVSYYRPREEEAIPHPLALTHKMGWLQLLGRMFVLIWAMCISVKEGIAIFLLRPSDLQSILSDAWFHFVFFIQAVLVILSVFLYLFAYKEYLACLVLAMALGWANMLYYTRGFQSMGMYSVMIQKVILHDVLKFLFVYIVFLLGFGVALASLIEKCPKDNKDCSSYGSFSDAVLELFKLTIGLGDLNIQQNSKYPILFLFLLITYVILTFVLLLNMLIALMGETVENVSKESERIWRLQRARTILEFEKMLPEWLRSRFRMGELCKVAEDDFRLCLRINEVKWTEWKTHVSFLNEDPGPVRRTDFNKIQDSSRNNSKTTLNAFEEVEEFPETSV

[2] = test system: MDA-MB-231 cell invasion; experiment: Cancer cell invasion assay, MDA-MB-231; assay type: cell-based, human; details: 24 h
Procedure: A cancer cell invasion assay was developed based on literature protocols (Methods 2005, 37, 208; EMBO J 2002, 21, 6289; Cellular Signalling 2012, 24, 1276.). Membrane matrix gel (Cat #A1413201, ThermoFisher) was diluted in ice-cold, serum-free RPMI 1640 Medium (Cat #31800022, ThermoFisher) at a concentration of 0.5-0.6 mg/mL. Then it was added to the upper compartment (100 μL per cup) of millicell inserts (Cat #PI8P01250, ThermoFisher) placed in a 24-well plate (Part no. 229123, Celltreat). The plate was incubated at 37° C. for 2 h to allow the liquid gel to solidify. RPMI 1640 Medium supplemented with 10% FBS (300 μL) was added to the well of the plate (lower compartment) as attractant, then DMSO or compounds were added. Human cancer cells (1×10^5 cells in 200 μL of RPMI 1640 Medium) were added to the upper compartment of the insert, then DMSO or compounds were added. After the plate was incubated at 37° C. for 24 h, the cells were fixed on the lower side of the insert membrane with 4% formaldehyde and stained with 1% crystal violet (Part no. IS12146, Innovating Science). The invaded cells on the lower side of the filter were counted under an inverted microscope equipped with either a 4× or a 10× objective (FIG. 11). The cell numbers from 5 random views were averaged and plotted as percentage against the DMSO control (FIG. 12A).

[3] = test system: OVCAR-8; experiment: Human cancer cell growth inhibition assay (ATP assay), OVCAR-8; assay type: cell-based; details: Homo sapiens, OVCAR-8, 96 h
[4] = test system: NCI-H460; experiment: Human cancer cell growth inhibition assay (ATP assay), NCI-H460; assay type: cell-based; details: Homo sapiens, NCI-H460, 96 h
[5] = test system: MDA-MB-231; experiment: Human cancer cell growth inhibition assay (ATP assay), MDA-MB-231; assay type: cell-based; details: Homo sapiens, MDA-MB-231, 96 h
[6] = molecular target: T2, human TRPA1 (Homo sapiens, UniProt O75762); experiment: In vitro Ca2+ flux counter-screen in human TRPA1 overexpressing cells; assay type: cell-based
T2 construct: expressed in transfected cells; host or cells: overexpressing cells
T2 sequence (O75762 whole entry): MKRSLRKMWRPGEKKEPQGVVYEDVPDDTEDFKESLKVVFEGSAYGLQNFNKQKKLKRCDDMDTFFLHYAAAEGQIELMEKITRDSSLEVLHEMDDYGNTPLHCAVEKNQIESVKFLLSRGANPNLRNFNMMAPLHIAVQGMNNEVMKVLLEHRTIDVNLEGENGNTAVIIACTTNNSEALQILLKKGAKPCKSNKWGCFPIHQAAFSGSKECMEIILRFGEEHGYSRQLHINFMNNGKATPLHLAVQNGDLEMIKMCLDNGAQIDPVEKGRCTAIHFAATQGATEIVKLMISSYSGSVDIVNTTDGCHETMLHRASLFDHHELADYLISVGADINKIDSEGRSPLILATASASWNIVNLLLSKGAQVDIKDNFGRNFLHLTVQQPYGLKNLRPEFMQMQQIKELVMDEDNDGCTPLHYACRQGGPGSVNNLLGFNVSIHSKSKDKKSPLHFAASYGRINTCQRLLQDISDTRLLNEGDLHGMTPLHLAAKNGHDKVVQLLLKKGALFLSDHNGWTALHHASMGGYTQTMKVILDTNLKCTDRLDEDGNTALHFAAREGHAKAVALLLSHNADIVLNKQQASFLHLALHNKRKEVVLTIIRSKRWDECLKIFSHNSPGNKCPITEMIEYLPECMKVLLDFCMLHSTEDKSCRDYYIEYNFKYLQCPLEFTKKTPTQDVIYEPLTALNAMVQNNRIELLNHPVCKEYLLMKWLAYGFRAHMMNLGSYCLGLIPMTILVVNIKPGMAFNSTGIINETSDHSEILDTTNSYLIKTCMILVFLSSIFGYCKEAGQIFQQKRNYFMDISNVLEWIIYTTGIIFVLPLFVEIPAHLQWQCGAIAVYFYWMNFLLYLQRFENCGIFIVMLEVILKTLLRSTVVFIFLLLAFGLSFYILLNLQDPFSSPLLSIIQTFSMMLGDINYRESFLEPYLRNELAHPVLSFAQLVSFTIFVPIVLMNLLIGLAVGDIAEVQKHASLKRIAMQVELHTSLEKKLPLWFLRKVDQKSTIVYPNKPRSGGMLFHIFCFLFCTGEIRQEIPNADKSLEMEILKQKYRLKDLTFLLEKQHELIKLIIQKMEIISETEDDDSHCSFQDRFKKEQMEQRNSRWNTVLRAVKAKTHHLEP

[7] = molecular target: T3, human TRPV1 (Homo sapiens, UniProt Q8NER1); experiment: In vitro Ca2+ flux assay in human TRPV1 transfected HEK 293 cells; assay type: cell-based; details: Means±SEM from three independent experiments
T3 construct: DYK (FLAG) tag from vector pcDNA3.1+/C-(K)DYK (C); host or cells: FreeStyle 293-F cells (HEK 293), transient transfection
T3 sequence (Q8NER1 whole entry): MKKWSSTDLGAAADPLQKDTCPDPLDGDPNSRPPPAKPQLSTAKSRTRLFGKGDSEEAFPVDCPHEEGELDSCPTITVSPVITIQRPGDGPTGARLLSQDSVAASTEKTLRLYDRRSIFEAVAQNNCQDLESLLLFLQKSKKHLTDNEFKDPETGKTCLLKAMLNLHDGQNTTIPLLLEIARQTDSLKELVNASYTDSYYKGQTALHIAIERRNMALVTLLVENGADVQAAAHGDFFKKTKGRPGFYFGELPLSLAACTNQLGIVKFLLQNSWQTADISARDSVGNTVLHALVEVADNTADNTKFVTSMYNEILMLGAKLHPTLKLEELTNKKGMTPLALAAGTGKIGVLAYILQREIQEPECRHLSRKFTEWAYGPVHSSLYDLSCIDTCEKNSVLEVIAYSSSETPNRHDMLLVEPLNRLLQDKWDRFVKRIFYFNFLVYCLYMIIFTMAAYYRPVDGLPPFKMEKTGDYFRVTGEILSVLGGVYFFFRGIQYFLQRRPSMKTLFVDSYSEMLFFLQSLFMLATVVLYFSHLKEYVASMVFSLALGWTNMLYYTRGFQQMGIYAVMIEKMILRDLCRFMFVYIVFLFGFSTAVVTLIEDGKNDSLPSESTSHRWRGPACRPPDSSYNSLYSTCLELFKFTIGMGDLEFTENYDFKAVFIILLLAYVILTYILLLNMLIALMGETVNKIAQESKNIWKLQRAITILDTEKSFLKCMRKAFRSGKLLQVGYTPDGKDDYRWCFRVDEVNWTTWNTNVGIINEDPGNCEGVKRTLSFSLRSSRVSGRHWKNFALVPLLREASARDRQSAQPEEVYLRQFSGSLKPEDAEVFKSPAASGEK

[8] = test system: Src protein activation in MDA-MB-231 cells; experiment: Cancer cell immunocytochemistry assay, Phospho-Src (Y416), MDA-MB-231; assay type: cell-based, human; details: at about 40% of IC50 concentration from cell growth inhibition assay, 4 h
Procedure: Human cancer cells (15,000 cells/well) in 96 well half area microplate (Cat #3882, Corning) were incubated overnight at 37° C., then compounds or DMSO control were added to the cell culture and incubated at 37° C. for 1-6 h. The cells were sequentially fixed with 4% formalin, permeabilized with 0.5% Triton X-100, blocked with 5% BSA in PBS, incubated with Human Phospho-Src (Y416) Antibody (Cat #MAB2685, R&D Systems) at rt for 2 h, incubated with the secondary antibody Goat Ant-Rabbit IgG H&L (Alexa Fluor 488) (Cat #ab150077, abeam) for 45 min, and incubated with DAPI (Cat #D9542, Sigma-Aldrich) for 5 min. Finally, the cells were washed and covered with PBS. The cell images were visualized on an inverted fluorescence microscope (Leica DMIL Fluorescent Inverted Microscope with Digital Camera, Leica Microsystems). Pictures were taken [FIGS. 14A-C. Green: Human Phospho-Src (Y416), the activated form of the Src protein; Blue: DAPI (stain nucleus of cell)]. The fluorescence intensity values from 5 random cells were averaged, subtracted by the background value (area between cells) and the blank value [the blank control without the Human Phospho-Src (Y416) Antibody], then plotted as percentage against the DMSO control to indicate the effects of compound treatment on the cellular Src kinase phosphorylation levels in the cancer cells (FIGS. 15A-D).

[9] = counter-screen, read-out: TRPV3 EC50
[10] = 4 days, Means±SEM from three independent experiments, read-out: OVCAR-8, IC50
[11] = 4 days, Means±SEM from three independent experiments, read-out: NCl-H460, IC50
[12] = 4 days, Means±SEM from three independent experiments, read-out: MDA-MB-231, IC50
[13] = counter-screen, read-out: TRPA1 EC50

Row | EC50 [1, 9] [µM] | IC50 [3, 10] [µM] | IC50 [4, 11] [µM] | IC50 [5, 12] [µM] | EC50 [6, 13] [µM] | EC50 ([7]; read-out: TRPV1 EC50) | SMILES | inhibition of MDA-MB-231 cell invasion [2] | IC50 ([3]; read-out: OVCAR-8, IC50, μM) [µM] | IC50 ([4]; read-out: NCl-H460, IC50, μM) [µM] | IC50 ([5]; read-out: MDA-MB-231, IC50, μM) [µM] | cellular Src kinase phosphorylation levels [8] | EC50 [1] [µM] | EC50 ([7]; TRPV1 EC50 (μM)) [µM] | EC50 [6] [µM]
1 | > 10 | 500 ± 120 | 320 ± 86 | 430 ± 90 | > 10 | – | COc1cc(CC2=NCC(c3ccccc3)O2)ccc1O (stereo not shown) [YB-3] | dose-dependently inhibited | – | – | – | – | – | – | –
2 | > 10 | 300 ± 60 | 270 ± 45 | 469 ± 130 | > 10 | – | COc1cc(CC2=NCC(c3ccc(C(F)(F)F)cc3)O2)ccc1O (stereo not shown) [YB-4] | dose-dependently inhibited | – | – | – | – | – | – | –
3 | > 10 | 150 ± 42 | 210 ± 48 | 542 ± 101 | > 10 | – | COc1cc(CC2=NCC(c3ccc(-c4ccccc4)cc3)O2)ccc1O (stereo not shown) [YB-5] | dose-dependently inhibited | – | – | – | – | – | – | –
4 | > 10 | 400 ± 51 | 400 ± 46 | 867 ± 72 | > 10 | – | COc1cc(CNC(=O)CCCC/C=C/C(C)C)ccc1NS(C)(=O)=O [YB-6] | dose-dependently inhibited | – | – | – | – | – | – | –
5 | > 10 | 310 ± 45 | 200 ± 49 | 386 ± 107 | > 10 | – | COc1cc(CNC(=O)CCCC/C=C/C(C)C)ccc1N(S(C)(=O)=O)S(C)(=O)=O [YB-7] | dose-dependently inhibited | – | – | – | – | – | – | –
6 | > 10 | 500 ± 81 | 250 ± 23 | 311 ± 31 | > 10 | – | CNc1ccc(CNC(=O)CCCC/C=C/C(C)C)cc1OC [YB-8] | dose-dependently inhibited | – | – | – | – | – | – | –
7 | > 10 | 34 | 73 ± 18 | 115 ± 28 | > 10 | < 0.1 µM and 0.012 to 0.048 µM | COc1cc(CC(=O)N/C=C/c2ccc(Cl)cc2)ccc1O [YB-10] | dose-dependently inhibited | – | – | – | – | – | – | –
8 | > 10 | 129 ± 20 | 61 ± 21 | 136 ± 29 | > 10 | – | COc1cc(CC(=O)N/C=C/c2ccc(-c3ccccc3)cc2)ccc1O [YB-12] | dose-dependently inhibited | – | – | – | – | – | – | –
9 | > 10 | 200 ± 16 | 100 ± 11 | 107 ± 7.5 | > 10 | – | COCCOCCOCCC(=O)Nc1ccc(CNC(=O)CCCC/C=C/C(C)C)cc1OC [YB-13] | dose-dependently inhibited | – | – | – | – | – | – | –
10 | > 10 | 500 ± 57 | > 300 | 300 ± 46 | > 10 | – | COc1ccc(/C=C/NC(=O)Cc2ccc(O)c(OC)c2)cc1 [YB-14] | – | – | – | – | – | – | – | –
11 | > 10 | 101 ± 17 | > 300 | 250 ± 38 | > 10 | < 0.1 µM and 0.012 to 0.048 µM | COc1cc(CC(=O)N/C=C/c2cccc(C(F)(F)F)c2)ccc1O [YB-15] | – | – | – | – | – | – | – | –
12 | > 10 | 200 ± 21 | 133 ± 18 | 69 ± 16 | > 10 | 0.34 to 1.1 µM | COc1cc(CC(=O)N/C=C/c2ccc(Cl)cc2)ccc1N [YB-18] | – | – | – | – | – | – | – | –
13 | > 10 | 100 ± 15 | 117 ± 16 | 103 ± 18 | > 10 | – | COc1cc(CC(=O)N/C=C/c2ccc(-c3ccccc3)cc2)ccc1N [YB-19] | – | – | – | – | – | – | – | –
14 | > 10 | 283 ± 38 | 279 ± 42 | 86 ± 14 | > 10 | – | COc1ccc(/C=C/NC(=O)Cc2ccc(N)c(OC)c2)cc1 [YB-20] | – | – | – | – | – | – | – | –
15 | > 10 | 65 ± 14 | 103 ± 13 | 101 ± 20 | > 10 | 0.34 to 1.1 µM | COc1cc(CC(=O)N/C=C/c2cccc(C(F)(F)F)c2)ccc1N [YB-21] | dose-dependently inhibited | – | – | – | – | – | – | –
16 | > 10 | 58 | 84 ± 12 | 74 | > 10 | – | COc1cc(CC(=O)N/C=C/c2cc(C(F)(F)F)cc(C(F)(F)F)c2)ccc1O [YB-22] | dose-dependently inhibited | – | – | – | significantly reduced the cellular Src kinase phosphorylation levels | – | – | –
17 | > 10 | 73 | 88 | 90 ± 12 | > 10 | – | COc1cc(CC(=O)N/C=C/c2ccc(C#N)cc2)ccc1O [YB-23] | dose-dependently inhibited | – | – | – | significantly reduced the cellular Src kinase phosphorylation levels | – | – | –
18 | > 10 | – | – | – | > 10 | > 10 µM | COc1cc(CC(=O)N/C=C/c2ccc(C(F)(F)F)cc2)ccc1NC(=O)CCCC/C=C/C(C)C [YB-29] | – | – | – | – | – | – | – | –
19 | > 10 | – | – | – | > 10 | 8.8 ± 0.9 µM | COc1cc(CC(=O)N/C=C/c2ccc(C(F)(F)F)cc2)ccc1NC(C)=O [YB-30] | – | – | – | – | – | – | – | –
20 | – | – | – | – | – | – | COc1cc(CC(=O)N/C=C/c2ccc(C(F)(F)F)cc2)ccc1OC(=O)N1CCCCC1CN(C)C(=O)OC(C)(C)C (stereo not shown) [YB-31] | – | – | – | – | – | > 10 | > 10 | > 10
21 | – | – | – | – | – | – | CNCC1CCCCN1C(=O)Oc1ccc(CC(=O)N/C=C/c2ccc(C(F)(F)F)cc2)cc1OC (stereo not shown) [YB-35] | – | – | – | – | – | > 10 | 0.71 ± 0.14 | > 10

Row | SMILES | EC50 [1, 9] [µM] | IC50 [3, 10] [µM] | IC50 [4, 11] [µM] | IC50 [5, 12] [µM] | EC50 [6, 13] [µM] | EC50 ([7]; read-out: TRPV1 EC50) | inhibition of MDA-MB-231 cell invasion [2] | IC50 ([3]; read-out: OVCAR-8, IC50, μM) [µM] | IC50 ([4]; read-out: NCl-H460, IC50, μM) [µM] | IC50 ([5]; read-out: MDA-MB-231, IC50, μM) [µM] | cellular Src kinase phosphorylation levels [8] | EC50 [1] [µM] | EC50 ([7]; TRPV1 EC50 (μM)) [µM] | EC50 [6] [µM]
22 | COc1cc(CC(=O)N/C=C/c2ccc(C(F)(F)F)cc2)ccc1N [YB-17] | > 10 | – | – | – | > 10 | 0.34 to 1.1 µM | – | 161 ± 26 | 139 ± 19 | 140 ± 22 | – | – | – | –

Source: US20240116856A1 (Young BioPharma, LLC, priority 2020, published 2024)
